According to patent publication US20240197738A1, “COMPOUND 7AI IN TREATING EWING SARCOMA BY INHIBITING OTUD7A” (The University of North Carolina at Chapel Hill, priority 2021, published 2024):
Where a SMILES comes first, the peptide text is derived from it. The star is where a group is joined. Cbz = O=C(OCc1ccccc1)*

What was measured:
Assay type in all cases: cell-based, human
SPOP = experiment: Immunoblot of SPOP levels; details: D4476 treatment
Procedure: (§1) Cells were lysed in EBC buffer (50 mM Tris pH 7.5, 120 mM NaCl, 0.5% NP-40) or Triton X-100 buffer (50 mM Tris pH 7.5, 150 mM NaCl, 1% Triton X-100) supplemented with protease inhibitors (Complete Mini, Roche) and phosphatase inhibitors (phosphatase inhibitor cocktail set I and II, Calbiochem). The protein concentrations of whole cell lysates were measured by NanoDrop OneC using the Bio-Rad protein assay reagent as described previously. Equal amounts of whole cell lysates were resolved by SDS-PAGE and immunoblotted with indicated antibodies. For immunoprecipitations analysis, unless specified, 1000 μg lysates were incubated with the indicated antibody (1-2 μg) for 3-4 hr at 4° C. followed by 1 hr incubation with 10 μL Protein A magnetic beads (New England Biolabs). Or 1000 μg lysates containing tagged molecules were incubated with agarose beads coupled antibodies for the specific tag for 3-4 hr at 4° C. For endogenous IPs, incubation of cell lysates with antibodies was extended to overnight. The recovered immuno-complexes were washed five times with NETN buffer (20 mM Tris, pH 8.0, 100 mM NaCl, 1 mM EDTA and 0.5% NP-40) before being resolved by SDS-PAGE and immunoblotted with indicated antibodies.

EWS-FLI1 = experiment: Immunoblot of EWS-FLI1 protein abundance in cells; details: for SPOP-mediated decrease of ectopically expressed EWS-FLI1: HEK293T cells, 10 μM MG132 or 1 μM MLN4924 overnight (FIG. 1G)
EWS-FLI1 binding to SPOP = EWS-FLI1 binding to SPOP in cells; details: D4476 treatment
Procedure: as §1

EWS-FLI1 mRNA = experiment: RT-PCR of EWS-FLI1 mRNA levels
Procedure: Cells were isolated by dissociation with 0.05% Trypsin, followed by media quenching. The cells were spun down at 300×rcf for 5 minutes. The media was aspirated, the pellet was suspended with 1×PBS, and then the cells were spun down again. The PBS was aspirated. RNA extraction was performed with an RNA extraction kit (BioBasic BS584). The final elution step was done with 50 μL of RNAse-free water. The […] with the NanoDrop OneC (Thermo Fisher Scientific). Three biological replicates were performed for RNA extraction. Quartile analysis was done to exclude outliers and significance was determined by one-way ANOVA tests.

NC(=O)c1ccc(-c2nc(-c3ccc4c(c3)OCCO4)c(-c3ccccn3)[nH]2)cc1 [D4476]
SPOP levels (SPOP): unaffected | EWS-FLI1 protein levels (EWS-FLI1; A673^3A KI cells, D4476 for 16 hrs (FIG. 2P)): not observed | EWS-FLI1 protein levels (EWS-FLI1; A673 parental cells, D4476 for 16 hrs (FIG. 2O)): Increased EWS-FLI1 protein levels | EWS-FLI1 protein abundance (EWS-FLI1; EWS502 cells (CUL3 E358Q), D4476 treatment): neither D4476 treatment, nor SPOP depletion increased EWS-FLI1 protein abundance | EWS-FLI1 protein accumulation (EWS-FLI1; SK-N-MC, EWS894 and MHH-ES-1 cells, D4476 for 16 hrs (FIGS. 2B-2D)): resulted in the accumulation of EWS-FLI1 in multiple Ewing sarcoma cells | effect on EWS-FLI1 levels in SPOP-depleted cells (EWS-FLI1; endogenous SPOP-depleted A673 cells, D4476 for 16 hrs (FIG. 2H)): attenuated | EWS-FLI1 binding to SPOP (EWS-FLI1 binding to SPOP): reduced EWS-FLI1 binding to SPOP | EWS-FLI1 mRNA levels (EWS-FLI1 mRNA; D4476 treatment): without significantly affecting EWS-FLI1 mRNA levels

Cc1sc2c(c1C)C(c1ccc(Cl)cc1)=N[C@@H](CC(=O)OC(C)(C)C)c1nnc(C)n1-2 [JQ1]
EWS-FLI1 protein abundance (EWS-FLI1; MHH-ES-1 or A673 cells, JQ1 treatment): didn't change EWS-FLI1 protein abundance

CC(C)C[C@@H](C=O)NC(=O)[C@H](CC(C)C)NC(=O)[C@H](CC(C)C)NC(=O)OCc1ccccc1 [MG132] (Cbz-Leu-Leu-Leu-aldehyde)
3A-EWS-FLI1 mutant protein response (EWS-FLI1; 3A-EWS-FLI1 (S464A/S465A/S466A), MG132 treatment): resistance to MG132 treatment | EWS-FLI1 protein abundance (EWS-FLI1; A673 and SK-N-MC cells, 10 μM MG132 for 4 hrs): significantly increased EWS-FLI1 protein abundance | SPOP-mediated decrease of ectopically expressed EWS-FLI1 (EWS-FLI1): blocked | EWS-FLI1 protein levels following OTUD7A depletion (EWS-FLI1; tet-induced OTUD7A depletion, MG132 treatment): largely preserved EWS-FLI1 protein levels

NS(=O)(=O)OC[C@@H]1C[C@@H](n2ccc3c(N[C@H]4CCc5ccccc54)ncnc32)C[C@@H]1O [MLN4924]
EWS-FLI1 protein stabilization (EWS-FLI1; A673 cells, 1 μM MLN4924 overnight): largely stabilized EWS-FLI1 | SPOP-mediated decrease of ectopically expressed EWS-FLI1 (EWS-FLI1): blocked

Nc1cccc2c1CN(C1CCC(=O)NC1=O)C2=O (centres unmarked) [lenalidomide]
EWS-FLI1 protein abundance (EWS-FLI1; MHH-ES-1 cells, lenalidomide for 16 hrs (FIG. 2I)): increased EWS-FLI1 protein abundance | EWS-FLI1 mRNA levels (EWS-FLI1 mRNA; lenalidomide treatment): without affecting EWS-FLI1 mRNA levels
